{"source": "ChEMBL document CHEMBL6109039", "about": "“Designed and synthesized novel tripeptides targeting diabetes and its related pathologies” (Eur J Med Chem, 2025)", "type_in_all_cases": "functional", "key": {"Mus musculus [1]": {"system": "Mus musculus", "experiment": "Antidiabetic activity in Nicotinamide/Streptozotocin induced male Balb/c mouse model assessed as reduction in VLDL-Cholesterol level in blood at 10 mg/kg, po treated for 21 days (reference value: 14 +/- 0.6 mg/dL)", "conditions": "time 21 day"}, "Mus musculus [2]": {"system": "Mus musculus", "experiment": "Antidiabetic activity in Nicotinamide/Streptozotocin induced male Balb/c mouse model assessed as change in body weight at 10 mg/kg, po treated for 21 days relative to control", "conditions": "time 21 day"}, "Mus musculus [3]": {"system": "Mus musculus", "experiment": "Antidiabetic activity in Nicotinamide/Streptozotocin induced male Balb/c mouse model assessed as LDL-Cholesterol/HDL Cholesterol ratio in blood at 10 mg/kg, po treated for 21 days (reference value: 1.53)", "conditions": "time 21 day"}, "Mus musculus [4]": {"system": "Mus musculus", "experiment": "Antidiabetic activity in Nicotinamide/Streptozotocin induced male Balb/c mouse model assessed as reduction in HbA1c levels at 10 mg/kg, po treated for 21 days by Turbidimetric inhibition immunoassay", "design": "scale not given: the % may be the effect or the level left", "conditions": "time 21 day"}, "Mus musculus [5]": {"system": "Mus musculus", "experiment": "Antidiabetic activity in Nicotinamide/Streptozotocin induced male Balb/c mouse model assessed as reduction in total cholesterol level in blood at 10 mg/kg, po treated for 21 days (reference value: 121 +/- 6.05 mg/dL)", "conditions": "time 21 day"}, "Mus musculus [6]": {"system": "Mus musculus", "experiment": "Antidiabetic activity in Nicotinamide/Streptozotocin induced male Balb/c mouse model assessed as reduction in LDL-Cholesterol level in blood at 10 mg/kg, po treated for 21 days (reference value: 46 +/- 2.30 mg/dL)", "conditions": "time 21 day"}, "Mus musculus [7]": {"system": "Mus musculus", "experiment": "Antidiabetic activity in Nicotinamide/Streptozotocin induced male Balb/c mouse model assessed as reduction in Triglycerides level in blood at 10 mg/kg, po treated for 21 days (reference value: 61 +/- 3.05 mg/dL)", "conditions": "time 21 day"}, "Mus musculus [8]": {"system": "Mus musculus", "experiment": "Antidiabetic activity in Nicotinamide/Streptozotocin induced male Balb/c mouse model assessed as reduction in fasting blood glucose levels at 10 mg/kg, po measured after 21 days by glucometer analysis (reference value: 180.5 +/- 9.02 mg/dl)", "conditions": "time 21 day"}, "Mus musculus [9]": {"system": "Mus musculus", "experiment": "Antidiabetic activity in Nicotinamide/Streptozotocin induced male Balb/c mouse model assessed as reduction in fasting blood glucose levels at 10 mg/kg, po measured after 7 days by glucometer analysis (reference value: 160.5 +/- 8.02 mg/dl)", "conditions": "time 7 day"}, "Mus musculus [10]": {"system": "Mus musculus", "experiment": "Antidiabetic activity in Nicotinamide/Streptozotocin induced male Balb/c mouse model assessed as change in body weight at 10 mg/kg, po measured immediately (reference value: 25.08 +/- 1.25 g)"}, "Mus musculus [11]": {"system": "Mus musculus", "experiment": "Antidiabetic activity in Nicotinamide/Streptozotocin induced male Balb/c mouse model assessed as Non-HDL-Cholesterol level in blood at 10 mg/kg, po treated for 21 days (reference value: 75 mg/dL)", "conditions": "time 21 day"}, "Mus musculus [12]": {"system": "Mus musculus", "experiment": "Antidiabetic activity in Nicotinamide/Streptozotocin induced male Balb/c mouse model assessed as reduction in aspartate transaminase level in blood at 10 mg/kg, po treated for 21 days (reference value: 171 +/- 8.55 U/L)", "conditions": "time 21 day"}, "Mus musculus [13]": {"system": "Mus musculus", "experiment": "Antidiabetic activity in Nicotinamide/Streptozotocin induced male Balb/c mouse model assessed as TC/HDL-Cholesterol ratio in blood at 10 mg/kg, po treated for 21 days (reference value: 4.03)", "conditions": "time 21 day"}, "Mus musculus [14]": {"system": "Mus musculus", "experiment": "Antidiabetic activity in Nicotinamide/Streptozotocin induced male Balb/c mouse model assessed as change in body weight at 10 mg/kg, po treated for 21 days (reference value: 16.62 +/- 0.83 g)", "conditions": "time 21 day"}, "Mus musculus [15]": {"system": "Mus musculus", "experiment": "Antidiabetic activity in Nicotinamide/Streptozotocin induced male Balb/c mouse model assessed as reduction in alanine aminotransferase level in blood at 10 mg/kg, po treated for 21 days (reference value: 111 +/- 5.05 U/L)", "conditions": "time 21 day"}, "Mus musculus [16]": {"system": "Mus musculus", "experiment": "Antidiabetic activity in Nicotinamide/Streptozotocin induced male Balb/c mouse model assessed as relative liver weight at 10 mg/kg, po treated for 21 days (reference value: 0.77 +/- 0.04 mg/g)", "conditions": "time 21 day"}, "Mus musculus [17]": {"system": "Mus musculus", "experiment": "Antidiabetic activity in Nicotinamide/Streptozotocin induced male Balb/c mouse model assessed as reduction in fasting blood glucose levels at 10 mg/kg, po measured after 14 days by glucometer analysis (reference value: 168.5 +/- 8.42 mg/dl)", "conditions": "time 14 day"}, "Mus musculus [18]": {"system": "Mus musculus", "experiment": "Antidiabetic activity in Nicotinamide/Streptozotocin induced male Balb/c mouse model assessed as reduction in HDL-Cholesterol level in blood at 10 mg/kg, po treated for 21 days (reference value: 30 +/- 1.80 mg/dL)", "conditions": "time 21 day"}, "Mus musculus [19]": {"system": "Mus musculus", "experiment": "Antidiabetic activity in Nicotinamide/Streptozotocin induced male Balb/c mouse model assessed as reduction in fasting blood glucose levels at 10 mg/kg, po measured immediately by glucometer analysis (reference value: 127.50 +/- 6.87 mg/dl)"}}, "data": [{"compound": "CCC1=C(C)CN(C(=O)NCCc2ccc(S(=O)(=O)NC(=O)N[C@H]3CC[C@H](C)CC3)cc2)C1=O", "note": "[GLIMEPIRIDE]", "values": [{"measurement": "Activity", "setting": "Mus musculus [1]", "value": 12, "unit": "mg/dL"}, {"measurement": "Activity", "setting": "Mus musculus [2]", "value": 42.69, "unit": "%"}, {"measurement": "Ratio", "setting": "Mus musculus [3]", "value": 0.702}, {"measurement": "Activity", "setting": "Mus musculus [4]", "value": 7.1, "unit": "%"}, {"measurement": "Activity", "setting": "Mus musculus [5]", "value": 108, "unit": "mg/dL"}, {"measurement": "Activity", "setting": "Mus musculus [6]", "value": 26, "unit": "mg/dL"}, {"measurement": "Activity", "setting": "Mus musculus [7]", "value": 56, "unit": "mg/dL"}, {"measurement": "Activity", "setting": "Mus musculus [8]", "value": 111.5, "unit": "mg/dL"}, {"measurement": "Activity", "setting": "Mus musculus [9]", "value": 143.5, "unit": "mg/dL"}, {"measurement": "Activity", "setting": "Mus musculus [10]", "value": 12.94, "unit": "g"}, {"measurement": "Activity", "setting": "Mus musculus [11]", "value": 82, "unit": "mg/dL"}, {"measurement": "Activity", "setting": "Mus musculus [12]", "value": 153, "unit": "U/L"}, {"measurement": "Ratio", "setting": "Mus musculus [13]", "value": 2.91}, {"measurement": "Activity", "setting": "Mus musculus [14]", "value": 22.58, "unit": "g"}, {"measurement": "Activity", "setting": "Mus musculus [15]", "value": 97, "unit": "U/L"}, {"measurement": "Activity", "setting": "Mus musculus [16]", "value": 1.23, "unit": "mg/g"}, {"measurement": "Activity", "setting": "Mus musculus [17]", "value": 108.5, "unit": "mg/dL"}, {"measurement": "Activity", "setting": "Mus musculus [18]", "value": 37, "unit": "mg/dL"}, {"measurement": "Activity", "setting": "Mus musculus [19]", "value": 109, "unit": "mg/dL"}]}]}
